Data from patent US20100105685A1, “S-Nitrosothiol Compounds and Related Derivatives” (Galleon Pharmaceuticals, Inc., priority 2006, published 2010).
“Also recorded” adds a separate entry of the source.

Legend:
[1] = cited from earlier work
[2] = system: fentanyl-induced respiratory depression; test: Fentanyl-induced respiratory depression model to assess restoration of ventilatory control; type: in vivo, Sprague-Dawley male rats; settings: rats; for restoration of ventilatory control / reversing the fentanyl-induced respiratory depression: fentanyl 75 to 150 micrograms per kilogram, intravenous infusion
[3] = system: apnea episodes; settings: cited from earlier work

SMILES: CC(=O)N[C@@H](CS)C(=O)O [N-acetyl-L-cysteine]
- absorption after oral administration [1]: poorly absorbed
- first pass metabolism by the liver ([1]; oral administration, destroys most of the parent drug): extensive first pass metabolism

SMILES: O=C(O)CCCCN[C@@H](CS)C(=O)O [GLN 10,013]
- restoration of ventilatory control / reversing the fentanyl-induced respiratory depression [2]: successfully restores ventilatory control
- reversal of respiratory depression, acute phase ([2]; fentanyl-induced, acute phase (0 to 5 minutes)): reverse respiratory depression
- reversal of respiratory depression, chronic phases ([2]; fentanyl-induced, chronic phases (10 to 50 minutes)): reverse respiratory depression

SMILES: O=C(O)CNC(=O)[C@H](CS)Nc1nccs1 [GLN 10,015]
- restoration of ventilatory control / reversing the fentanyl-induced respiratory depression [2]: not be effective; also recorded: does not restore

SMILES: CC(=O)Nc1nnc(S(N)(=O)=O)s1 [acetazolamide]
- apnea episodes after treatment ([3]; central apnea patients, low doses, after one month of treatment (25.5 pre-treatment)): 6.8
- decrease in apnea episodes ([3]; central apnea patients, low doses, after one month of treatment): 73%
- reduction in apnea episodes ([3]; patients that had predominantly obstructive sleep apnea): about 25%
